Experiments:
[1] = biological target: Sodium channel protein type 4 subunit alpha (Homo sapiens, UniProt P35499); experiment: Inhibition of human Nav1.4 expressed in HEK293 cells at holding potential of -125 mV […] by patchxpress-based electrophysiology assay; assay type: cell-based
[2] = biological target: Sodium channel protein type 9 subunit alpha (Homo sapiens, UniProt Q15858); experiment: Inhibition of human Nav1.7 expressed in HEK293 cells at holding potential of -125 mV […] by patchxpress-based electrophysiology assay; assay type: cell-based
Sodium channel protein type 9 subunit alpha, sequence (Q15858 whole entry): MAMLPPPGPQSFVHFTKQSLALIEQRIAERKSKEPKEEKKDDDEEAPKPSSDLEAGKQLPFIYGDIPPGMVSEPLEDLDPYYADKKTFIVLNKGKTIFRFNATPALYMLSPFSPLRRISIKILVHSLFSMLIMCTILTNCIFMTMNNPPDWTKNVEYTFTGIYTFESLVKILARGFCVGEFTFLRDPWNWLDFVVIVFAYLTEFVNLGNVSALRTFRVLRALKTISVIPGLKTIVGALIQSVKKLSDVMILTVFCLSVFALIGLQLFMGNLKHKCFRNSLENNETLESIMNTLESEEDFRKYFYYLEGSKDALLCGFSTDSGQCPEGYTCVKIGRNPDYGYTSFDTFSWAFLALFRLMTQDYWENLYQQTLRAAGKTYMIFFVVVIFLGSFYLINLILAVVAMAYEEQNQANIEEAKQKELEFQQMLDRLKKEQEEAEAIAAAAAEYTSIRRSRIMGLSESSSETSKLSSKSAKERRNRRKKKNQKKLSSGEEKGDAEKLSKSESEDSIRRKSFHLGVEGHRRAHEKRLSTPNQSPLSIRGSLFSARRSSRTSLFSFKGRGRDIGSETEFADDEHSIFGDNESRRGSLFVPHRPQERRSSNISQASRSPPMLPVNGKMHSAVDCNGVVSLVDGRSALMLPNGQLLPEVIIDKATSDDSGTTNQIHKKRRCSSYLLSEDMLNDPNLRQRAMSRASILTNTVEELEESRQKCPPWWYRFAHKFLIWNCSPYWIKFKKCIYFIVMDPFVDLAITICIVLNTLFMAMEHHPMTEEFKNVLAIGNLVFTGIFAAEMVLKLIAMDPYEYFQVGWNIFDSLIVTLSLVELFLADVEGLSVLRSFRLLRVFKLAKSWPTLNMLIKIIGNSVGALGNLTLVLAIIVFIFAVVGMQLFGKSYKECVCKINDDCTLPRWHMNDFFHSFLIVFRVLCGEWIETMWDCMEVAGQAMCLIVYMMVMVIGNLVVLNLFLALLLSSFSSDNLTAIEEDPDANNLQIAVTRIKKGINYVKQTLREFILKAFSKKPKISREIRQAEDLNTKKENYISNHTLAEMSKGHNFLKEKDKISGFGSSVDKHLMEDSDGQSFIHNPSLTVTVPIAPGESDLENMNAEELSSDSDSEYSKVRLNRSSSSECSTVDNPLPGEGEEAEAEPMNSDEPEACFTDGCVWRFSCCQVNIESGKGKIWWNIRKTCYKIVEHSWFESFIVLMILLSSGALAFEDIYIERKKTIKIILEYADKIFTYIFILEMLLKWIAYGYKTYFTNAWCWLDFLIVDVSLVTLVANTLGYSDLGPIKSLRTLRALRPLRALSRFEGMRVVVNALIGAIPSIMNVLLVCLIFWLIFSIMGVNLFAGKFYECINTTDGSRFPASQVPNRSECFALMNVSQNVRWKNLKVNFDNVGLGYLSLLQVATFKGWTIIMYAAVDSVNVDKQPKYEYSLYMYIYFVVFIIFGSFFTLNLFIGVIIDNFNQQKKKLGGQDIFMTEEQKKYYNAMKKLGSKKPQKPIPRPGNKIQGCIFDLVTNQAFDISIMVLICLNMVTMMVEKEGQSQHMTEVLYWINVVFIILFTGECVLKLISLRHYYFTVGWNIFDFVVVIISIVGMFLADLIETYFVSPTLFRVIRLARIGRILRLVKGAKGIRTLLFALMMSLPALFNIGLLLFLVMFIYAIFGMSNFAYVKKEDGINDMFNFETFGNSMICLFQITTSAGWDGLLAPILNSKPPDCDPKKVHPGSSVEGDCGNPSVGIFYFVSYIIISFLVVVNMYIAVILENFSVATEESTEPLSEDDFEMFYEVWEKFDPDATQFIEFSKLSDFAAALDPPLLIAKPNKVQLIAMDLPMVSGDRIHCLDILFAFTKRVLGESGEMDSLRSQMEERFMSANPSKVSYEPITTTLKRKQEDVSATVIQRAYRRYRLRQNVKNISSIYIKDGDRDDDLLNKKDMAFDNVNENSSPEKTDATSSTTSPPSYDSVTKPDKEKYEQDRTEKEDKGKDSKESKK

Sodium channel protein type 4 subunit alpha, sequence (P35499 whole entry): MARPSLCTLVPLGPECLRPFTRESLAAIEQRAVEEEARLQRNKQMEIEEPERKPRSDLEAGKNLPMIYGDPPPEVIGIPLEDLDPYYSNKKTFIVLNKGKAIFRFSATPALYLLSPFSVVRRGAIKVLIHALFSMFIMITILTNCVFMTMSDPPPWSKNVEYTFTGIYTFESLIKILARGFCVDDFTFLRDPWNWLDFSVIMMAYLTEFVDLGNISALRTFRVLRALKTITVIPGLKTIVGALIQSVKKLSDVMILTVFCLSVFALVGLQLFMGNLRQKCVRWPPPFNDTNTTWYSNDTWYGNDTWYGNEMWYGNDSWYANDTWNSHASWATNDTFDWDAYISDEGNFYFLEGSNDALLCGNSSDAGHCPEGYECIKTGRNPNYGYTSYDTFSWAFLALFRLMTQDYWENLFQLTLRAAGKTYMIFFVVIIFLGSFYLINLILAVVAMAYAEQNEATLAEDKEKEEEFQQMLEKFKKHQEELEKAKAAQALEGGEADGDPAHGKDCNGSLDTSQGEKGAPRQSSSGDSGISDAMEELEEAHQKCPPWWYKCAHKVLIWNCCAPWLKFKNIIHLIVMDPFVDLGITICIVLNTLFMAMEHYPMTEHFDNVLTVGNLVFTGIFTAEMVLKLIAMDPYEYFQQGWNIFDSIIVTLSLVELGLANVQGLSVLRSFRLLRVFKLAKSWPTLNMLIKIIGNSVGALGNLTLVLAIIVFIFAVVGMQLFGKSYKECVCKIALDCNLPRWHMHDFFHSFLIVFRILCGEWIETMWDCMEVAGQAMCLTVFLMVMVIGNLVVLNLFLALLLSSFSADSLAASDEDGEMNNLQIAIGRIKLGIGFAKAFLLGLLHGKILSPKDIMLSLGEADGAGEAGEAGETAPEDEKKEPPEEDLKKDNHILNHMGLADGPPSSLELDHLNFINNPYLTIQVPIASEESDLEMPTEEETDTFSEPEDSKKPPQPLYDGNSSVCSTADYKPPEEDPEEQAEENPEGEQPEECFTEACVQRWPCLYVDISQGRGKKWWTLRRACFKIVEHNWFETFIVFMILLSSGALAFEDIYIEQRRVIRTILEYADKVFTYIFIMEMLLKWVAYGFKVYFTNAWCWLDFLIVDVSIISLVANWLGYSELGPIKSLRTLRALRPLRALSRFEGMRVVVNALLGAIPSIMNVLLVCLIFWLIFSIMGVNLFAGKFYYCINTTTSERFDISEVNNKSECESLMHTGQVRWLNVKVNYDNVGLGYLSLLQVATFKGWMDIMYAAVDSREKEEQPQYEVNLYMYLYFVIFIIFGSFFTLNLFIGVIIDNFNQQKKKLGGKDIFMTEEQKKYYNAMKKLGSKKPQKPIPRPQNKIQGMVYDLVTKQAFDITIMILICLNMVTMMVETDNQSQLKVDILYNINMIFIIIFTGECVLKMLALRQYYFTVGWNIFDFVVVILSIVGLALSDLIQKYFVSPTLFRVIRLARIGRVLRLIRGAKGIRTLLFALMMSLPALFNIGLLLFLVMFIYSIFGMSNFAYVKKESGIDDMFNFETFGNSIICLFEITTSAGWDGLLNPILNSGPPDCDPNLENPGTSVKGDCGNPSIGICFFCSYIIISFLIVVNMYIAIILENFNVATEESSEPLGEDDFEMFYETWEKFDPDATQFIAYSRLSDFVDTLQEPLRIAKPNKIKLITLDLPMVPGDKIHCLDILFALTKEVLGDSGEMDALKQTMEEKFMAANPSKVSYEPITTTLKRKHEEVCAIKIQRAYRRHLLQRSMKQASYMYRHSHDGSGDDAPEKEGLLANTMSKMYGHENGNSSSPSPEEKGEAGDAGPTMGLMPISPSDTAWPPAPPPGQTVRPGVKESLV

`C#CC[C@H](N)C(=O)N[C@@H](Cc1ccc(O)cc1)C(=O)N[C@H]1CSSC[C@@H]2NC(=O)[C@@H]3CSSC[C@@H](C(=O)N[C@@H](CCCNC(=N)N)C(=O)N[C@@H](CCCCN)C(=O)N[C@@H](CCC(=O)O)C(=O)N[C@@H](Cc4c[nH]c5ccccc45)C(N)=O)NC(=O)[C@H](Cc4c[nH]c5ccccc45)NC(=O)[C@H](CC(C)C)NC(=O)[C@H](CCCCN)NC(=O)[C@H](CSSC[C@H](NC(=O)[C@H]([C@@H](C)O)NC(=O)[C@H](Cc4c[nH]c5ccccc45)NC(=O)[C@H](CCCC)NC(=O)[C@H](Cc4c[nH]c5ccccc45)NC(=O)[C@H](CCCCN)NC(=O)[C@H](CCC(N)=O)NC1=O)C(=O)N[C@@H](CC(=O)O)C(=O)N[C@@H](CO)C(=O)N[C@@H](CCCCN)C(=O)N[C@@H](CCCNC(=N)N)C(=O)N[C@@H](C)C(=O)N3)NC(=O)[C@H](CCCNC(=N)N)NC(=O)[C@H](CC(C)C)NC(=O)CNC(=O)[C@H](CCC(=O)O)NC2=O` gave an IC50 [1] of 92 nM and an IC50 [2] of 0.2 nM.
Compound `C#CC[C@H](N)C(=O)N[C@@H](Cc1ccc(O)cc1)C(=O)N[C@H]1CSSC[C@@H]2NC(=O)[C@@H]3CSSC[C@@H](C(=O)N[C@@H](CCCNC(=N)N)C(=O)N[C@@H](CCCCN)C(=O)N[C@@H](CCC(=O)O)C(=O)N[C@H](C(N)=O)[C@@H](C)CC)NC(=O)[C@H](Cc4c[nH]c5ccccc45)NC(=O)[C@H](CC(C)C)NC(=O)[C@H](CCCCN)NC(=O)[C@H](CSSC[C@H](NC(=O)[C@H]([C@@H](C)O)NC(=O)[C@H](Cc4c[nH]c5ccccc45)NC(=O)[C@H](CCCC)NC(=O)[C@H](Cc4ccccc4)NC(=O)[C@H](CCCCN)NC(=O)[C@H](CCC(N)=O)NC1=O)C(=O)N[C@@H](CC(=O)O)C(=O)N[C@@H](CO)C(=O)N[C@@H](CCCCN)C(=O)N[C@@H](CCCNC(=N)N)C(=O)N[C@@H](C)C(=O)N3)NC(=O)[C@H](CCCNC(=N)N)NC(=O)[C@H](CC(C)C)NC(=O)CNC(=O)[C@H](CCC(=O)O)NC2=O` has an IC50 [1] of 52 nM and an IC50 [2] of 1.3 nM.
In the case of `C#CC[C@H](NC(=O)[C@@H](N)CCC(=O)O)C(=O)N[C@H]1CSSC[C@@H]2NC(=O)[C@@H]3CSSC[C@@H](C(=O)N[C@@H](CCCNC(=N)N)C(=O)N[C@@H](CCCCN)C(=O)N[C@@H](CCC(=O)O)C(=O)N[C@H](C(N)=O)[C@@H](C)CC)NC(=O)[C@H](Cc4c[nH]c5ccc(Br)cc45)NC(=O)[C@H](CC(C)C)NC(=O)[C@H](CCCCN)NC(=O)[C@H](CSSC[C@H](NC(=O)[C@H]([C@@H](C)O)NC(=O)[C@H](Cc4c[nH]c5ccccc45)NC(=O)[C@H](CCCC)NC(=O)[C@H](Cc4c[nH]c5ccccc45)NC(=O)[C@H](CCCCN)NC(=O)[C@H](CCC(N)=O)NC1=O)C(=O)N[C@@H](CC(=O)O)C(=O)N[C@@H](CO)C(=O)N[C@@H](CCCCN)C(=O)N[C@@H](CCCNC(=N)N)C(=O)N[C@@H](CCC(=O)O)C(=O)N3)NC(=O)[C@H](CCCNC(=N)N)NC(=O)[C@H](CC(C)C)NC(=O)CNC(=O)[C@H](CCC(=O)O)NC2=O`, the IC50 [1] is reported as 182 nM and the IC50 [2] is reported as 1.3 nM.
For `C#CC[C@H](N)C(=O)N[C@@H](Cc1ccc(O)cc1)C(=O)N[C@H]1CSSC[C@@H]2NC(=O)[C@@H]3CSSC[C@@H](C(=O)N[C@@H](CCCNC(=N)N)C(=O)N[C@@H](CCCCN)C(=O)N[C@@H](CCC(=O)O)C(=O)N[C@H](C(N)=O)[C@@H](C)CC)NC(=O)[C@H](Cc4ccccc4)NC(=O)[C@H](CC(C)C)NC(=O)[C@H](CCCCN)NC(=O)[C@H](CSSC[C@H](NC(=O)[C@H]([C@@H](C)O)NC(=O)[C@H](Cc4c[nH]c5ccccc45)NC(=O)[C@H](CCCC)NC(=O)[C@H](Cc4c[nH]c5ccccc45)NC(=O)[C@H](CCCCN)NC(=O)[C@H](CCC(N)=O)NC1=O)C(=O)N[C@@H](CC(=O)O)C(=O)N[C@@H](CO)C(=O)N[C@@H](CCCCN)C(=O)N[C@@H](CCCNC(=N)N)C(=O)N[C@@H](C)C(=O)N3)NC(=O)[C@H](CCCNC(=N)N)NC(=O)[C@H](CC(C)C)NC(=O)CNC(=O)[C@H](CCC(=O)O)NC2=O`, the IC50 [2] was 15 nM.
For `C#CC[C@H](N)C(=O)N[C@@H](Cc1ccc(O)cc1)C(=O)N[C@H]1CSSC[C@@H]2NC(=O)[C@@H]3CSSC[C@@H](C(=O)N[C@@H](CCCNC(=N)N)C(=O)N[C@@H](CCCCN)C(=O)N[C@@H](CCC(=O)O)C(=O)N[C@H](C(N)=O)[C@@H](C)CC)NC(=O)[C@H](Cc4c[nH]c5ccccc45)NC(=O)[C@H](CCCC)NC(=O)[C@H](CCCCN)NC(=O)[C@H](CSSC[C@H](NC(=O)[C@H]([C@@H](C)O)NC(=O)[C@H](Cc4c[nH]c5ccccc45)NC(=O)[C@H](CCCC)NC(=O)[C@H](Cc4c[nH]c5ccccc45)NC(=O)[C@H](CCCCN)NC(=O)[C@H](CCC(N)=O)NC1=O)C(=O)N[C@@H](CC(=O)O)C(=O)N[C@@H](CO)C(=O)N[C@@H](CCCCN)C(=O)N[C@@H](CCCNC(=N)N)C(=O)N[C@@H](C)C(=O)N3)NC(=O)[C@H](CCCNC(=N)N)NC(=O)[C@H](CC(C)C)NC(=O)CNC(=O)[C@H](CCC(=O)O)NC2=O`, the IC50 [2] was 1.7 nM.
`C#CC[C@H](NC(=O)[C@H](C)N)C(=O)N[C@H]1CSSC[C@@H]2NC(=O)[C@@H]3CSSC[C@@H](C(=O)N[C@@H](CCCNC(=N)N)C(=O)N[C@@H](CCCCN)C(=O)N[C@@H](CCC(=O)O)C(=O)N[C@H](C(N)=O)[C@@H](C)CC)NC(=O)[C@H](Cc4c[nH]c5ccc(Br)cc45)NC(=O)[C@H](CC(C)C)NC(=O)[C@H](CCCCN)NC(=O)[C@H](CSSC[C@H](NC(=O)[C@H]([C@@H](C)O)NC(=O)[C@H](Cc4c[nH]c5ccccc45)NC(=O)[C@H](CCCC)NC(=O)[C@H](Cc4c[nH]c5ccccc45)NC(=O)[C@H](CCCCN)NC(=O)[C@H](CCC(N)=O)NC1=O)C(=O)N[C@@H](CC(=O)O)C(=O)N[C@@H](CO)C(=O)N[C@@H](CCCCN)C(=O)N[C@@H](CCCNC(=N)N)C(=O)N[C@@H](C)C(=O)N3)NC(=O)[C@H](CCCNC(=N)N)NC(=O)[C@H](CC(C)C)NC(=O)CNC(=O)[C@H](CCC(=O)O)NC2=O` was tested, and the IC50 [2] was 1 nM.
In the case of `C#CC[C@H](N)C(=O)N[C@@H](Cc1ccc(O)cc1)C(=O)N[C@H]1CSSC[C@@H]2NC(=O)[C@@H]3CSSC[C@@H](C(=O)N[C@@H](CCCNC(=N)N)C(=O)N[C@@H](CCCCN)C(=O)N[C@@H](CCC(=O)O)C(=O)N[C@H](C(N)=O)[C@@H](C)CC)NC(=O)[C@H](Cc4c[nH]c5ccccc45)NC(=O)[C@H](CC(C)C)NC(=O)[C@H](CCCCN)NC(=O)[C@H](CSSC[C@H](NC(=O)[C@H]([C@@H](C)O)NC(=O)[C@H](CCc4ccccc4)NC(=O)[C@H](CCCC)NC(=O)[C@H](Cc4c[nH]c5ccccc45)NC(=O)[C@H](CCCCN)NC(=O)[C@H](CCC(N)=O)NC1=O)C(=O)N[C@@H](CC(=O)O)C(=O)N[C@@H](CO)C(=O)N[C@@H](CCCCN)C(=O)N[C@@H](CCCNC(=N)N)C(=O)N[C@@H](C)C(=O)N3)NC(=O)[C@H](CCCNC(=N)N)NC(=O)[C@H](CC(C)C)NC(=O)CNC(=O)[C@H](CCC(=O)O)NC2=O`, the IC50 [2] is reported as 6.8 nM.
For `C#CC[C@H](N)C(=O)N[C@@H](Cc1ccc(O)cc1)C(=O)N[C@H]1CSSC[C@@H]2NC(=O)[C@@H]3CSSC[C@@H](C(=O)N[C@@H](CCCNC(=N)N)C(=O)N[C@@H](CCCCN)C(=O)N[C@@H](CCC(=O)O)C(=O)N[C@H](C(N)=O)[C@@H](C)CC)NC(=O)[C@H](Cc4c[nH]c5ccccc45)NC(=O)[C@H](CC(C)C)NC(=O)[C@H](CCCCN)NC(=O)[C@H](CSSC[C@H](NC(=O)[C@H]([C@@H](C)O)NC(=O)[C@H](Cc4c[nH]c5ccccc45)NC(=O)[C@H](CCCC)NC(=O)[C@H](Cc4ccc5ccccc5c4)NC(=O)[C@H](CCCCN)NC(=O)[C@H](CCC(N)=O)NC1=O)C(=O)N[C@@H](CC(=O)O)C(=O)N[C@@H](CO)C(=O)N[C@@H](CCCCN)C(=O)N[C@@H](CCCNC(=N)N)C(=O)N[C@@H](C)C(=O)N3)NC(=O)[C@H](CCCNC(=N)N)NC(=O)[C@H](CC(C)C)NC(=O)CNC(=O)[C@H](CCC(=O)O)NC2=O`, the IC50 [2] was 22 nM.
`C#CC[C@H](N)C(=O)N[C@@H](Cc1ccc(O)cc1)C(=O)N[C@H]1CSSC[C@@H]2NC(=O)[C@@H]3CSSC[C@@H](C(=O)N[C@@H](CCCNC(=N)N)C(=O)N[C@@H](CCCCN)C(=O)N[C@@H](CCC(=O)O)C(=O)N[C@H](C(N)=O)[C@@H](C)CC)NC(=O)[C@H](Cc4c[nH]c5ccccc45)NC(=O)[C@H]([C@@H](C)CC)NC(=O)[C@H](CCCCN)NC(=O)[C@H](CSSC[C@H](NC(=O)[C@H]([C@@H](C)O)NC(=O)[C@H](Cc4c[nH]c5ccccc45)NC(=O)[C@H](CCCC)NC(=O)[C@H](Cc4c[nH]c5ccccc45)NC(=O)[C@H](CCCCN)NC(=O)[C@H](CCC(N)=O)NC1=O)C(=O)N[C@@H](CC(=O)O)C(=O)N[C@@H](CO)C(=O)N[C@@H](CCCCN)C(=O)N[C@@H](CCCNC(=N)N)C(=O)N[C@@H](C)C(=O)N3)NC(=O)[C@H](CCCNC(=N)N)NC(=O)[C@H](CC(C)C)NC(=O)CNC(=O)[C@H](CCC(=O)O)NC2=O` was tested, and the IC50 [2] was 1.1 nM.
Compound `C#CC[C@H](N)C(=O)N[C@@H](Cc1ccc(O)cc1)C(=O)N[C@H]1CSSC[C@@H]2NC(=O)[C@@H]3CSSC[C@@H](C(=O)N[C@@H](CCCNC(=N)N)C(=O)N[C@@H](CCCCN)C(=O)N[C@@H](CCC(=O)O)C(=O)N[C@H](C(N)=O)[C@@H](C)CC)NC(=O)[C@H](Cc4c[nH]c5ccc(Br)cc45)NC(=O)[C@H](CC(C)C)NC(=O)[C@H](CCCCN)NC(=O)[C@H](CSSC[C@H](NC(=O)[C@H]([C@@H](C)O)NC(=O)[C@H](Cc4c[nH]c5ccccc45)NC(=O)[C@H](CCCC)NC(=O)[C@H](CCc4ccccc4)NC(=O)[C@H](CCCCN)NC(=O)[C@H](CCC(N)=O)NC1=O)C(=O)N[C@@H](CC(=O)O)C(=O)N[C@@H](CO)C(=O)N[C@@H](CCCCN)C(=O)N[C@@H](CCCNC(=N)N)C(=O)N[C@@H](C)C(=O)N3)NC(=O)[C@H](CCCNC(=N)N)NC(=O)[C@H](CC(C)C)NC(=O)CNC(=O)[C@H](CCC(=O)O)NC2=O` has an IC50 [2] of 1 nM.
